Where “and” joins values, the source holds several entries; their conditions need not be identical. Equal values may be shown once. Read-outs that look alike come from different tables or passages of the source. Each block holds one compound with its values, some of them ahead of it.
Legend:
[1] = system: mice subjected to a high-fat diet; experiment: Mice subjected to a high-fat diet for 3 weeks: carcass weight, quadriceps composition, energy balance; format: in vivo, male C57BL/6J mice; conditions: high-fat diet 3 weeks
Procedure: (§1) The effect of phytoecdysones is observed on mice subjected to a high-fat diet during 3 weeks.
(§2) The HF high-fat diet involved the intake of large amounts of fat in the form of lard. The mice selected for the study were male C57BL/6J mice, 6 weeks old at the start of the experiment.
Mice not subjected to a high fat diet, forming a normal diet control group, were tested in parallel.
(§3) The mice in the study were grouped according to the dietary regimes and treatments to which they were subjected: normal or control diet (LF), high-fat diet (HF), high-fat diet supplemented with quinoa extract (HFQ) and high-fat diet supplemented with pure 20-hydroxyecdysone (HF20E).
(§4) The mice were subjected to the dietary regimes detailed in Table 1 below for three weeks and the mice fed a high-fat diet were treated in parallel with pure 20E or extract A (2% 20E). The concentration of 20E was adjusted to equal 40 mg per kg of food.
In light of the average food intake of the mice, the dose of 20E administered corresponded in the two treatments to 5 mg of 20E per kg of body weight per day. The food was supplied in excess every day for both dietary regimes and all three treatments. On average, 40 g of food was provided per cage per day or 6.5 g of food per mouse per day.
Table 1 below sets out in greater detail the composition of the diets to which mice were subjected:
Following sacrifice, aliquots of muscle (quadriceps) were collected for analysis. FIG. 2 illustrates a graph plotting muscle triglyceride content against diet and associated treatment.

UCP2 gene transcripts = experiment: Quantity of UCP2 gene transcripts (mRNA) in muscle of high-fat diet mice; format: in vivo, male C57BL/6J mice; conditions: high-fat diet 3 weeks, 5 mg of 20E per kg body weight per day; vs high-fat diet alone
Excerpt: as §1, §2, §3, §4
(§5) In light of the average food intake of the mice, the dose of 20E administered corresponded in the two treatments to 5 mg of 20E per kg of body weight per day. The food was supplied in excess every day for both dietary regimes and all three treatments. […]
(§6) FIG. 4 illustrates a graph plotting quantities of gene transcripts (mRNA), as measured in the muscle, against diet and associated treatment. The quantities have been normalized with respect to the quantities measured in the muscles of mice fed the control diet.

UCP3 gene transcripts = experiment: Quantity of UCP3 gene transcripts (mRNA) in muscle of high-fat diet mice; format: in vivo, male C57BL/6J mice; conditions: high-fat diet 3 weeks, 5 mg of 20E per kg body weight per day; vs high-fat diet alone
Excerpt: as §1, §2, §3, §4, §5, §6

[2] = system: CPT-1 intracellular fatty acid transporter gene transcripts; experiment: Quantity of CPT-1 gene transcripts (mRNA) in muscle of high-fat diet mice; format: in vivo, male C57BL/6J mice; conditions: high-fat diet 3 weeks, 5 mg of 20E per kg body weight per day
Excerpt: as §1, §2, §3, §4, §5, §6

C2C12 myoblast = C2C12 myoblast differentiation (fusion index, number of nuclei per myotube); format: cell-based, mouse; conditions: for EC50: C2C12 myoblasts, 6-day differentiation in the presence of the drug, read-out: EC50 for number of nuclei per myotube increase
Procedure: FIGS. 10A-B are graphs of BIO101 efficacy 50% value (EC50) determination on myoblasts differentiation. The fusion index and number of nuclei per myotubes were measured after 6-day differentiation in the presence of the drug.
The fusion index and the number of nuclei per myotube are recognized parameters of myoblast differentiation. The fusion index was calculated as the ratio of nuclei in fused MHC-positive cells 2 nuclei per cells) to the total nuclei number. […] EC50 values (efficacious doses 50%) for each parameter were calculated by the integration of effect vs [BIO101] curves.

C2C12 cells = experiment: Protein synthesis in differentiated C2C12 myotubes by [3H]-leucine incorporation; format: cell-based, mouse; conditions: 0.1 μM, vs untreated control
Excerpt: FIGS. 11A-B are graph of effects of 20-hydroxyecdysone (20E) on protein synthesis and myostatin gene expression in C2C12 cells. […] Results are shown as means±SEM, ***p<0.001, **p<0.01, *p<0.05 vs untreated control (Kruskal-Wallis followed by a Dunn's test).

[3] = system: myostatin gene expression; experiment: Myostatin gene expression in C2C12 myotubes by qRT-PCR; format: cell-based, mouse; conditions: 6 hours, vs untreated control
Procedure: In FIG. 11B, C2C12 mouse myoblasts were differentiated for 6 days into myotubes. They were then treated for 6 hours with concentrations of 20E ranging from 0.001 to 10 μM. Myostatin gene expression was detected by qRT-PCR. Results are shown as means±SEM with ***p<0.001, **p<0.01, *p<0.05 vs untreated control (one-way ANOVA with Dunnett's test compared to untreated control).

[4] = Single ascending dose study, clinical Phase 1: plasma levels; format: in vivo; conditions: human; for Cmax: plasma, SAD, read-out: Maximal plasma concentration (Cmax)
Procedure: A single ascending BIO101 dose study during clinical Phase 1 trial is performed. […] This low concentration is clearly below optimal conditions (with only 26 and 32% of efficacy for two selected markers of differentiation, see FIGS. 10A-B) and is not responsible for significant efficacy in terms of anabolism (FIGS. 11A-B).
FIG. 12A-B are graphs of plasma levels of BIO101 in human following 100, 350 and 700 mg administration.

sarcopenic patients = experiment: Clinical trial in sarcopenic patients: gait speed in 400 meters walking test; format: in vivo, human; conditions: 6 months; for improvement in gait speed in 400 meters walking test compared to placebo: 700 mg daily
Excerpt: After 6 months of treatment, an improvement of 0.09 m/s in the full analyze set (FAS) population and 0.10 m/s in the per protocol (PP) population (treatment effect significant, p<0.01) were observed. This effect of Sarconeos (BIO101) corresponds to the minimal clinically important difference (MCID) in sarcopenia (0.1 m/s), associated with a reduction in mobility and disability in elderly (Perera et al. 2006).

[5] = Multiple ascending dose study, clinical Phase 1: adverse events; format: in vivo; conditions: human, daily administrations of 900 mg, MAD
Procedure: A multiple ascending BIO101 dose study was performed during clinical Phase 1 trial. […] For this reason, in clinical Phase 2, the daily dose of 900 mg was not tested.

SMILES: CC(C)(O)CC[C@@H](O)[C@](C)(O)[C@H]1CC[C@@]2(O)C3=CC(=O)[C@@H]4C[C@@H](O)[C@@H](O)C[C@]4(C)[C@H]3CC[C@]12C [20E, 20-hydroxyecdysone]
- energy expenditure higher than high-fat diet alone ([1]; 5 mg of 20E per kg body weight per day): 9%
- food intake (energy, kcal) ([1]; 5 mg of 20E per kg body weight per day, compared with animals fed the standard diet): same amount of energy
- higher muscle protein content (quadriceps) ([1]; 5 mg of 20E per kg body weight per day, trend, compared to HF treatment alone): 5%
- lower muscle triglyceride content (quadriceps) ([1]; 5 mg of 20E per kg body weight per day, trend, vs high-fat diet alone): 26%
- lean body mass (carcass defatted) / carcass weight ([1]; 5 mg of 20E per kg of body weight per day in food, vs high-fat diet alone): increase that has allowed the mice to return virtually to the same level as the normal diet
- quantity of UCP2 gene transcripts in muscle (UCP2 gene transcripts): tendency to increased quantities
- quantity of UCP3 gene transcripts in muscle (UCP3 gene transcripts): increase
- quantity of CPT-1 gene transcripts in muscle [2]: tends to restore transcript levels to those seen for the control diet

- EC50 (C2C12 myoblast): 550 nM
- EC50 (C2C12 myoblast; Mus musculus, C2C12, 144 h): 556 nM
- plasma exposure (maximal concentration from plot vs administered dose) ([4]; 175 mg administration (5 mg/kg for a 35 kg patient), read from FIG. 12B): 0.4 µM
- Cmax ([4]; 100 mg dose): 260 nM and 126 ng/mL
- Cmax ([4]; 350 mg dose): 630 nM and 304 ng/mL
- Cmax ([4]; 700 mg dose): 780 nM and 374 ng/mL
SMILES: CC(C)(O)CC[C@@H](O)[C@](C)(O)[C@H]1CC[C@@]2(O)C3=CC(=O)[C@@H]4C[C@@H](O)[C@@H](O)C[C@]4(C)[C@H]3CC[C@]12C [BIO101]
- % of efficacy on differentiation marker (first marker, fusion index) (C2C12 myoblast; at 0.26 μM, the plasma peak of a 100 mg dose, read from FIG. 10A): 26%
- % of efficacy on differentiation marker (second marker, number of nuclei per myotube) (C2C12 myoblast; at 0.26 μM, the plasma peak of a 100 mg dose, read from FIG. 10B): 32%
- effect on protein synthesis (C2C12 cells): not yet significant
- inhibition of myostatin gene expression ([3]; 0.1 μM): not yet significant
- inhibition of myostatin gene expression ([3]; concentration equal or higher than 0.5 μM): significant
- gait speed in 400 meters walking test compared to placebo (sarcopenic patients; 350 mg daily, notably in a frail sub population of the FAS): improvement
- improvement in gait speed in 400 meters walking test compared to placebo (sarcopenic patients; full analyze set (FAS) population): 0.09 m/s
- improvement in gait speed in 400 meters walking test compared to placebo (sarcopenic patients; per protocol (PP) population, p<0.01): 0.10 m/s
- treatment-related TEAEs (treatment-emergent adverse events) [5]: high number of subjects with treatment-related TEAEs

Reference: patent US20220079956A1, “MAINTENANCE OF AGING MUSCLE TISSUE” (BIOPHYTIS SA, priority 2011, published 2022)
